{"source": "BindingDB's records for doi:10.1021/jm00078a018", "about": "(Merck Research Laboratories, 1994)", "note": "pIC50: −log10 of the molar value. Where a name gives a salt, the structure may show the parent alone.", "data": [{"assay": "Inhibition of binding of [125I]-CCK-8 to the cholecystokinin type B receptor", "values": [{"smiles": "Cc1cccc(NC(=O)NC2N=C(c3ccccc3)c3ccccc3N(Cc3nnc(C)[nH]3)C2=O)c1", "note": "(configuration not stated) [1-[1-(5-Methyl-4H-[1,2,4]triazol-3-ylmethyl)-2-oxo-5-phenyl-2,3-dihydro-1H-benzo[e][1,4]diazepin-3-yl]-3-m-tolyl-urea]", "pIC50": 8.01}, {"smiles": "CN1C(=O)C(NC(=O)NCc2cccc(C(C)(C)O)c2)N=C(c2ccccc2)c2ccccc21", "note": "(configuration not stated) [1-[3-(1-Hydroxy-1-methyl-ethyl)-benzyl]-3-(1-methyl-2-oxo-5-phenyl-2,3-dihydro-1H-benzo[e][1,4]diazepin-3-yl)-urea]", "pIC50": 8.23}, {"smiles": "CN1C(=O)C(NC(=O)NC(C)(C)C)N=C(c2ccccc2)c2ccccc21", "note": "(configuration not stated) [1-tert-Butyl-3-(1-methyl-2-oxo-5-phenyl-2,3-dihydro-1H-benzo[e][1,4]diazepin-3-yl)-urea]", "pIC50": 4.42}, {"smiles": "Cc1cccc(NC(=O)NC2N=C(c3ccccc3)c3ccccc3N(CC(=O)N3CCN(C)CC3)C2=O)c1", "note": "(configuration not stated) [1-{1-[2-(4-Methyl-piperazin-1-yl)-2-oxo-ethyl]-2-oxo-5-phenyl-2,3-dihydro-1H-benzo[e][1,4]diazepin-3-yl}-3-m-tolyl-urea; hydrochloride]", "pIC50": 8.46}, {"smiles": "Cc1cccc(NC(=O)NC2N=C(c3ccccc3)c3ccccc3N(CC(=O)ON3CCC[C@@H]3C(=O)O)C2=O)c1", "note": "(some centres not stated) [1-{2-[2-Oxo-5-phenyl-3-(3-m-tolyl-ureido)-2,3-dihydro-benzo[e][1,4]diazepin-1-yl]-acetoxy}-pyrrolidine-2-carboxylic acid]", "pIC50": 6.89}, {"smiles": "Cc1cccc(NC(=O)NC2N=C(c3ccccc3)c3ccccc3N(CC(=O)Nc3ccncc3)C2=O)c1", "note": "(configuration not stated) [2-[2-Oxo-5-phenyl-3-(3-m-tolyl-ureido)-2,3-dihydro-benzo[e][1,4]diazepin-1-yl]-N-pyridin-4-yl-acetamide]", "pIC50": 7.32}, {"smiles": "Cc1ccc(NC(=O)NC2N=C(c3ccccc3)c3ccccc3N(CC(=O)Nc3ccncc3)C2=O)cc1", "note": "(configuration not stated) [2-[2-Oxo-5-phenyl-3-(3-p-tolyl-ureido)-2,3-dihydro-benzo[e][1,4]diazepin-1-yl]-N-pyridin-4-yl-acetamide]", "pIC50": 6.72}, {"smiles": "CCN(CC)C(=O)CN1C(=O)C(NC(=O)Nc2ccccc2Cl)N=C(c2ccccc2)c2ccccc21", "note": "(configuration not stated) [2-{3-[3-(2-Chloro-phenyl)-ureido]-2-oxo-5-phenyl-2,3-dihydro-benzo[e][1,4]diazepin-1-yl}-N,N-diethyl-acetamide]", "pIC50": 8.42}, {"smiles": "CCN(CC)C(=O)CN1C(=O)C(NC(=O)Nc2ccc(Cl)cc2)N=C(c2ccccc2)c2ccccc21", "note": "(configuration not stated) [2-{3-[3-(4-Chloro-phenyl)-ureido]-2-oxo-5-phenyl-2,3-dihydro-benzo[e][1,4]diazepin-1-yl}-N,N-diethyl-acetamide]", "pIC50": 9.22}, {"smiles": "CCN(CC)C(=O)C(C)N1C(=O)C(NC(=O)Nc2ccc(Cl)cc2)N=C(c2ccccc2)c2ccccc21", "note": "(configuration not stated) [2-{3-[3-(4-Chloro-phenyl)-ureido]-2-oxo-5-phenyl-2,3-dihydro-benzo[e][1,4]diazepin-1-yl}-N,N-diethyl-propionamide]", "pIC50": 7.66}, {"smiles": "CCNC(=O)CN1C(=O)C(NC(=O)Nc2ccc(Cl)cc2)N=C(c2ccccc2)c2ccccc21", "note": "(configuration not stated) [2-{3-[3-(4-Chloro-phenyl)-ureido]-2-oxo-5-phenyl-2,3-dihydro-benzo[e][1,4]diazepin-1-yl}-N-ethyl-acetamide]", "pIC50": 7.96}, {"smiles": "CN1C(=O)C(NC(=O)Nc2cccc(C(=O)O)c2)N=C(c2ccccc2)c2ccccc21", "note": "(configuration not stated) [3-[3-(1-Methyl-2-oxo-5-phenyl-2,3-dihydro-1H-benzo[e][1,4]diazepin-3-yl)-ureido]-benzoic acid]", "pIC50": 8.01}, {"smiles": "COC(=O)c1cccc(NC(=O)N[C@@H]2N=C(c3ccccc3)c3ccccc3N(C)C2=O)c1", "note": "[3-[3-((R)-1-Methyl-2-oxo-5-phenyl-2,3-dihydro-1H-benzo[e][1,4]diazepin-3-yl)-ureido]-benzoic acid methyl ester]", "pIC50": 8.10}, {"smiles": "CCOC(=O)CCN1C(=O)C(NC(=O)Nc2cccc(OC)c2)N=C(c2ccccc2)c2ccccc21", "note": "(configuration not stated) [3-{3-[3-(3-Methoxy-phenyl)-ureido]-2-oxo-5-phenyl-2,3-dihydro-benzo[e][1,4]diazepin-1-yl}-propionic acid ethyl ester]", "pIC50": 9.00}, {"smiles": "COc1cccc(NC(=O)NC2N=C(c3ccccc3)c3ccccc3N(CCC(=O)O)C2=O)c1", "note": "(configuration not stated) [3-{3-[3-(3-Methoxy-phenyl)-ureido]-2-oxo-5-phenyl-2,3-dihydro-benzo[e][1,4]diazepin-1-yl}-propionic acid]", "pIC50": 6.60}, {"smiles": "CCOC(=O)CCN1C(=O)C(NC(=O)Nc2ccc(Cl)cc2)N=C(c2ccccc2)c2ccccc21", "note": "(configuration not stated) [3-{3-[3-(4-Chloro-phenyl)-ureido]-2-oxo-5-phenyl-2,3-dihydro-benzo[e][1,4]diazepin-1-yl}-propionic acid ethyl ester]", "pIC50": 8.23}, {"smiles": "CN1C(=O)C(NC(=O)Nc2ccc(C(=O)O)cc2)N=C(c2ccccc2)c2ccccc21", "note": "(configuration not stated) [4-[3-(1-Methyl-2-oxo-5-phenyl-2,3-dihydro-1H-benzo[e][1,4]diazepin-3-yl)-ureido]-benzoic acid]", "pIC50": "< 7.00"}, {"smiles": "CN1C(=O)C(NC(N)=O)N=C(c2ccccc2)c2ccccc21", "note": "(configuration not stated) [(1-Methyl-2-oxo-5-phenyl-2,3-dihydro-1H-benzo[e][1,4]diazepin-3-yl)-urea]", "pIC50": "< 4.00"}, {"smiles": "COc1cccc(NC(=O)NC2N=C(c3ccccc3)c3ccccc3N(CC[N+](C)(C)C)C2=O)c1", "note": "(configuration not stated) [(2-{3-[3-(3-Methoxy-phenyl)-ureido]-2-oxo-5-phenyl-2,3-dihydro-benzo[e][1,4]diazepin-1-yl}-ethyl)-trimethyl-ammonium; iodide]", "pIC50": 5.96}, {"smiles": "CN1C(=O)C(NC(=O)Nc2ccc(Cl)cc2)N=C(c2ccccc2)c2ccccc21", "note": "[(R)-1-(4-Chloro-phenyl)-3-(1-methyl-2-oxo-5-phenyl-2,3-dihydro-1H-benzo[e][1,4]diazepin-3-yl)-urea]", "pIC50": 7.09}, {"smiles": "CCN(CC)CC(=O)OCCN1C(=O)C(NC(=O)Nc2cccc(C)c2)N=C(c2ccccc2)c2ccccc21", "note": "(configuration not stated) [Diethylamino-acetic acid 2-[2-oxo-5-phenyl-3-(3-m-tolyl-ureido)-2,3-dihydro-benzo[e][1,4]diazepin-1-yl]-ethyl ester]", "pIC50": 8.25}, {"smiles": "CCN(CC)C(=O)CN1C(=O)C(NC(=O)Nc2cccc(OC)c2)N=C(c2ccccc2)c2ccccc21", "note": "(configuration not stated) [N,N-Diethyl-2-{3-[3-(3-methoxy-phenyl)-ureido]-2-oxo-5-phenyl-2,3-dihydro-benzo[e][1,4]diazepin-1-yl}-acetamide]", "pIC50": 9.66}, {"smiles": "O=C(CN1C(=O)C(NC(=O)Nc2ccc(Cl)cc2)N=C(c2ccccc2)c2ccccc21)NCc1ccccc1", "note": "(configuration not stated) [N-Benzyl-2-{3-[3-(4-chloro-phenyl)-ureido]-2-oxo-5-phenyl-2,3-dihydro-benzo[e][1,4]diazepin-1-yl}-acetamide]", "pIC50": 6.99}, {"smiles": "Cc1cccc(NC(=O)NC2N=C(c3ccccc3)c3ccccc3N(CCOC(=O)CCC(=O)O)C2=O)c1", "note": "(configuration not stated) [Succinic acid mono-{2-[2-oxo-5-phenyl-3-(3-m-tolyl-ureido)-2,3-dihydro-benzo[e][1,4]diazepin-1-yl]-ethyl} ester]", "pIC50": 8.14}, {"smiles": "Cc1cccc(NC(=O)NC2N=C(c3ccccc3)c3ccccc3N(CC(=O)O)C2=O)c1", "note": "(configuration not stated) [[2-Oxo-5-phenyl-3-(3-m-tolyl-ureido)-2,3-dihydro-benzo[e][1,4]diazepin-1-yl]-acetic acid]", "pIC50": 6.42}, {"smiles": "CCOC(=O)CN1C(=O)C(NC(=O)c2ccccc2Cl)N=C(c2ccccc2F)c2ccccc21", "note": "(configuration not stated) [[3-(2-Chloro-benzoylamino)-5-(2-fluoro-phenyl)-2-oxo-2,3-dihydro-benzo[e][1,4]diazepin-1-yl]-acetic acid ethyl ester]", "pIC50": 5.49}, {"smiles": "CCOC(=O)CN1C(=O)C(NC(=O)N[C@@H](C)c2ccccc2)N=C(c2ccccc2)c2ccccc21", "note": "(some centres not stated) [{2-Oxo-5-phenyl-3-[3-(1-phenyl-ethyl)-ureido]-2,3-dihydro-benzo[e][1,4]diazepin-1-yl}-acetic acid ethyl ester]", "pIC50": "< 7.00"}, {"smiles": "CN1C(=O)C(NC(=O)Nc2cccc(CNC(=O)OC(C)(C)C)c2)N=C(c2ccccc2)c2ccccc21", "note": "(configuration not stated) [{3-[3-(1-Methyl-2-oxo-5-phenyl-2,3-dihydro-1H-benzo[e][1,4]diazepin-3-yl)-ureido]-benzyl}-carbamic acid tert-butyl ester]", "pIC50": 6.77}, {"smiles": "COC(=O)Cc1cccc(NC(=O)NC2N=C(c3ccccc3)c3ccccc3N(C)C2=O)c1", "note": "(configuration not stated) [{3-[3-(1-Methyl-2-oxo-5-phenyl-2,3-dihydro-1H-benzo[e][1,4]diazepin-3-yl)-ureido]-phenyl}-acetic acid methyl ester]", "pIC50": 7.48}, {"smiles": "CN1C(=O)C(NC(=O)Nc2cccc(CC(=O)O)c2)N=C(c2ccccc2)c2ccccc21", "note": "(configuration not stated) [{3-[3-(1-Methyl-2-oxo-5-phenyl-2,3-dihydro-1H-benzo[e][1,4]diazepin-3-yl)-ureido]-phenyl}-acetic acid]", "pIC50": 8.31}, {"smiles": "O=C(Nc1ccc(Cl)cc1)NC1N=C(c2ccccc2)c2ccccc2N(CC(=O)OCc2ccccc2)C1=O", "note": "(configuration not stated) [{3-[3-(4-Chloro-phenyl)-ureido]-2-oxo-5-phenyl-2,3-dihydro-benzo[e][1,4]diazepin-1-yl}-acetic acid benzyl ester]", "pIC50": 7.36}, {"smiles": "O=C(O)CN1C(=O)C(NC(=O)Nc2ccc(Cl)cc2)N=C(c2ccccc2)c2ccccc21", "note": "(configuration not stated) [{3-[3-(4-Chloro-phenyl)-ureido]-2-oxo-5-phenyl-2,3-dihydro-benzo[e][1,4]diazepin-1-yl}-acetic acid]", "pIC50": 7.14}]}]}
